According to ChEMBL document CHEMBL5465560, “Selectivity Literature for EUbOPEN Chemogenomic Library” (2024):

What was measured:
[1] = biological target: Cyclin-dependent kinase-like 3 (Homo sapiens) (UniProt Q8IVW4); test: Selectivity interaction (Ambit KINOMEscan and KiNATiv profiling in Jurkat cells) EUB0000090b CDKL3; assay type: cell-based; conditions: at 1 µM
[2] = biological target: Epithelial discoidin domain-containing receptor 1 (Homo sapiens) (UniProt Q08345); test: Selectivity interaction (Ambit KINOMEscan and KiNATiv profiling in Jurkat cells) EUB0000090b DDR1; assay type: cell-based; conditions: at 1 µM
[3] = biological target: Serine/threonine-protein kinase 32C (Homo sapiens) (UniProt Q86UX6); test: Selectivity interaction (Ambit KINOMEscan and KiNATiv profiling in Jurkat cells) EUB0000090b STK32C; assay type: cell-based; conditions: at 1 µM
[4] = biological target: T1, Megakaryocyte-associated tyrosine-protein kinase (Homo sapiens) (UniProt P42679); test: Selectivity interaction (Kinase panel (Invitrogen)) EUB0000639a MATK; conditions: at 200 nM
T1 sequence (whole entry): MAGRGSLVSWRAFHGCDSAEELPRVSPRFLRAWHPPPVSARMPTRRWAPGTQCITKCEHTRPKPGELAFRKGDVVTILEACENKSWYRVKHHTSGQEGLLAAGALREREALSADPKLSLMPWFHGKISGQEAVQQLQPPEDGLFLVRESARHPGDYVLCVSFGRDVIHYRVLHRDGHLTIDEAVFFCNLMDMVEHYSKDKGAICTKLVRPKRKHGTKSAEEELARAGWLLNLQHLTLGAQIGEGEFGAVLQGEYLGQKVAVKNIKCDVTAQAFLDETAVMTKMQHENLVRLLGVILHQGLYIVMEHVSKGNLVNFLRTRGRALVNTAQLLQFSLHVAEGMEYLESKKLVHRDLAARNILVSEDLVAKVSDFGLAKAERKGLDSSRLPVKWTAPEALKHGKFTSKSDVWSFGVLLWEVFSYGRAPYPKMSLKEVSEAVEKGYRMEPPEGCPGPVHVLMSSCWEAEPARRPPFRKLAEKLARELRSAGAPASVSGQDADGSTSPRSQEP

[5] = biological target: [Pyruvate dehydrogenase (acetyl-transferring)] kinase isozyme 1, mitochondrial (Homo sapiens, UniProt Q15118); test: Selectivity interaction (Kinase panel (Z-LYTE Assay)) EUB0001632a PDK1; conditions: at 10 µM
[6] = biological target: Serine/threonine-protein kinase PAK 1 (Homo sapiens) (UniProt Q13153); test: Selectivity interaction (KinomeScan (DiscoverX)) EUB0000695a PAK1; conditions: at 100 nM
[7] = biological target: T2, Dual specificity protein kinase TTK (Homo sapiens) (UniProt P33981); test: Selectivity interaction (KinomeScan (DiscoverX)) EUB0000229b TTK; conditions: at 10 µM
T2 sequence (whole entry): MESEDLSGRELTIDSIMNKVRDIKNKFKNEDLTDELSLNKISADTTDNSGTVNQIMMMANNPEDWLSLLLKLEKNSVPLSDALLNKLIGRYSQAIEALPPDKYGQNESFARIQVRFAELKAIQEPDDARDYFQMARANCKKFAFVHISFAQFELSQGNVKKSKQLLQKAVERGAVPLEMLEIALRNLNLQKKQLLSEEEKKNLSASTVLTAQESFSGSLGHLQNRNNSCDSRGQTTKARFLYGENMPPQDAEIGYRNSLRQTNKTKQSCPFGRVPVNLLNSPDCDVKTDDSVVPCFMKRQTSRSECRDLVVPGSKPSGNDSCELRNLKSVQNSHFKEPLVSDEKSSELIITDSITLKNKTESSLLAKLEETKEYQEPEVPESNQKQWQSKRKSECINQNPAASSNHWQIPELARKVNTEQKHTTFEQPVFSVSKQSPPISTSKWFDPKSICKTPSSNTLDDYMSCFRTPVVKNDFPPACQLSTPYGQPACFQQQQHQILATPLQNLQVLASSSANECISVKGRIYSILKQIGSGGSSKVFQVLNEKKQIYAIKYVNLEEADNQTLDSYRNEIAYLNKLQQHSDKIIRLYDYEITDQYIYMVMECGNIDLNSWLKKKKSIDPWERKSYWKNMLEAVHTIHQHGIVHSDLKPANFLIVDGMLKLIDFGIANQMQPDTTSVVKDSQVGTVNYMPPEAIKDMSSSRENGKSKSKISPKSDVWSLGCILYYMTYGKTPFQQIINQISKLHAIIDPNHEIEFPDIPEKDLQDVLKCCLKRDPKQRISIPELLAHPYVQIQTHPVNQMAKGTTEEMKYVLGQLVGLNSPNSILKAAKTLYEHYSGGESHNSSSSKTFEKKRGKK

[8] = biological target: Protein kinase C delta type (Homo sapiens) (UniProt Q05655); test: Selectivity interaction (ProQinase) EUB0000171b PRKCD
[9] = biological target: Serine/threonine-protein kinase 10 (Homo sapiens) (UniProt O94804); test: Selectivity interaction (KinomeScan (DiscoverX)) EUB0000655a STK10; conditions: at 10 µM
[10] = biological target: Death-associated protein kinase 2 (Homo sapiens) (UniProt Q9UIK4); test: Selectivity interaction (KinomeScan (DiscoverX)) EUB0000655a DAPK2; conditions: at 10 µM
[11] = biological target: Serine/threonine-protein kinase tousled-like 2 (Homo sapiens) (UniProt Q86UE8); test: Selectivity interaction (KinomeScan (DiscoverX)) EUB0001619a TLK2; conditions: at 1 µM
[12] = biological target: T3, Interleukin-1 receptor-associated kinase 4 (Homo sapiens) (UniProt Q9NWZ3); test: Selectivity interaction (Kinase panel (KiNativ target engagement assay in Jurkat cells)) EUB0001635a IRAK4; assay type: cell-based; conditions: Selectivity number of off-targets 0.0, Selectivity number of targets 233.0, Source Knowledge https://www.sciencedirect.com/science/article/pii/S2451945619300674?via%3Dihub, at 1 µM
T3 sequence (whole entry): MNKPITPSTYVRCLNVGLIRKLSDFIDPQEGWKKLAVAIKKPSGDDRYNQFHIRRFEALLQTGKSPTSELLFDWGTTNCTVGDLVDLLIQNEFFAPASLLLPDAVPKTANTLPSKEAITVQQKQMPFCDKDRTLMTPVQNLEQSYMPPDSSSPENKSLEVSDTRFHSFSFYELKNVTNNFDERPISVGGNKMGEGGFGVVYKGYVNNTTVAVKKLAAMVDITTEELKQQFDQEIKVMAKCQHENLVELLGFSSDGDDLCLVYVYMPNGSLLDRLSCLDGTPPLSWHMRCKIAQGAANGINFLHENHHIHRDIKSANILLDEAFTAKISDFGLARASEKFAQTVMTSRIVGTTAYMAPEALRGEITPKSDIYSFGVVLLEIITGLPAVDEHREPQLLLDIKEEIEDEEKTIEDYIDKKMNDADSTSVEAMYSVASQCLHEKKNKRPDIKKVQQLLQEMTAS

Sequence of Protein kinase C delta type (Homo sapiens) (Q05655 whole entry, looked up): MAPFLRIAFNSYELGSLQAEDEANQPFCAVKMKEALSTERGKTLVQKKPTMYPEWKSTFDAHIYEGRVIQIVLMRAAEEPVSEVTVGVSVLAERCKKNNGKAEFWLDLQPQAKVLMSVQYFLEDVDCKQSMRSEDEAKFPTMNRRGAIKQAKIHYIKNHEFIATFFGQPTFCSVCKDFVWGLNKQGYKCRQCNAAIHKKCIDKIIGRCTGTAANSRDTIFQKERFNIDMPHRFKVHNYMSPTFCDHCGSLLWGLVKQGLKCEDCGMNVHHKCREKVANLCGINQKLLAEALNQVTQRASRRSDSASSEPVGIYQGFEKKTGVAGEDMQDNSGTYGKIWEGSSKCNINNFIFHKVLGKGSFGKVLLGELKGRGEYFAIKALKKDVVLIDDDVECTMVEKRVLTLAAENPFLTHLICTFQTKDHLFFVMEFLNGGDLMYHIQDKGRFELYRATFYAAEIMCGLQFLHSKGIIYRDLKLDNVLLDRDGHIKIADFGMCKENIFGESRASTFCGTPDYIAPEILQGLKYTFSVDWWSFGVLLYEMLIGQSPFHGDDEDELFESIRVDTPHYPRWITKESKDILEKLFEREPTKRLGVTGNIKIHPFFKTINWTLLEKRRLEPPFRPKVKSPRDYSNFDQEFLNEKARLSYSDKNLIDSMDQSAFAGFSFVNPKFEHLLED
Sequence of Death-associated protein kinase 2 (Homo sapiens) (Q9UIK4 whole entry, looked up): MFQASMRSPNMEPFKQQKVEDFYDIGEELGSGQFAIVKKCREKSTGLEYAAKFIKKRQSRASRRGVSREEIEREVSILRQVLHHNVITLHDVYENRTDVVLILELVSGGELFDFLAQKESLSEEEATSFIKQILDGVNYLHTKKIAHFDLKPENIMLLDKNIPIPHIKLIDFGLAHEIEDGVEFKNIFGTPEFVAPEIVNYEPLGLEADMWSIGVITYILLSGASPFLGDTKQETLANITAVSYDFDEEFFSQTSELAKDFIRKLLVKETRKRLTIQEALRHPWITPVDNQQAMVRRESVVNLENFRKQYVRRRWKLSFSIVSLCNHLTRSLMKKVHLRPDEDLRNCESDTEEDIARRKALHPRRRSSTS
Sequence of Serine/threonine-protein kinase 32C (Homo sapiens) (Q86UX6 whole entry): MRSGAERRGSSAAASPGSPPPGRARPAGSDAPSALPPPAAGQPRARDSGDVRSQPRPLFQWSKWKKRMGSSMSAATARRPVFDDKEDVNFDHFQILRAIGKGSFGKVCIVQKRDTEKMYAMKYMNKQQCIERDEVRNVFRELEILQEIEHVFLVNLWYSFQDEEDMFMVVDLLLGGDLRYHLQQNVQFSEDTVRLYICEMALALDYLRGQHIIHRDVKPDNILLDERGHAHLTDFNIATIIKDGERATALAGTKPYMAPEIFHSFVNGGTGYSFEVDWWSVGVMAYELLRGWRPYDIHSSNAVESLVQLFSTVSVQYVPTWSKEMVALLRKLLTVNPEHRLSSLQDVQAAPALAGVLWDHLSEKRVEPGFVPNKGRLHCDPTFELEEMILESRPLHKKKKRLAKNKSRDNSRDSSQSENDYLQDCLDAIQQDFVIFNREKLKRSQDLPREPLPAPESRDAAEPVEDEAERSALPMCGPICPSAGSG
Sequence of Serine/threonine-protein kinase 10 (Homo sapiens) (O94804 whole entry, looked up): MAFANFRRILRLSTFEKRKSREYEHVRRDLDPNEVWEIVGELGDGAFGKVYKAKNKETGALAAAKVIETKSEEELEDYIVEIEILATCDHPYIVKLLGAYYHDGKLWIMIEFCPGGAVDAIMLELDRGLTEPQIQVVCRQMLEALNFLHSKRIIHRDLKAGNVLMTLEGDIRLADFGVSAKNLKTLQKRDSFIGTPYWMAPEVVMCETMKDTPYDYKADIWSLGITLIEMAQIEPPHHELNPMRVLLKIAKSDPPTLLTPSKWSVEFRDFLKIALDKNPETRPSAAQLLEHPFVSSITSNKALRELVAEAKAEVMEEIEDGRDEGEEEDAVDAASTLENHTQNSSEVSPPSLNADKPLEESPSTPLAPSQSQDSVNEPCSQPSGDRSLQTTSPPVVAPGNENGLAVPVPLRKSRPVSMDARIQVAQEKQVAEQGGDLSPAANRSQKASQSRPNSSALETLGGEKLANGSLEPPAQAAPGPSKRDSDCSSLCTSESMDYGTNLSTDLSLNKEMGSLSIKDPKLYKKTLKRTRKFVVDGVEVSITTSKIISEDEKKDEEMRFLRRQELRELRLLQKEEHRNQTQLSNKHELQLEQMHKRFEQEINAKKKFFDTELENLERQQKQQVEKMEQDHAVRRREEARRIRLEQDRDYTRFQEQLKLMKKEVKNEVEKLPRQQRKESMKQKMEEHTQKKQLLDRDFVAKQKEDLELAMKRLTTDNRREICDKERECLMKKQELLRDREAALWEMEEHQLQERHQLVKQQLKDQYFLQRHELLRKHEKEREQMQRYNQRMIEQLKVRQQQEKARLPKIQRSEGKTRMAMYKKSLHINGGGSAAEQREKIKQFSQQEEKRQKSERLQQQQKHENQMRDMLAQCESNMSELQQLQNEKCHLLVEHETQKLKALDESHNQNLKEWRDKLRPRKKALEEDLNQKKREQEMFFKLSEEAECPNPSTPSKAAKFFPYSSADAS
Sequence of Epithelial discoidin domain-containing receptor 1 (Homo sapiens) (Q08345 whole entry, the tested form may be a part): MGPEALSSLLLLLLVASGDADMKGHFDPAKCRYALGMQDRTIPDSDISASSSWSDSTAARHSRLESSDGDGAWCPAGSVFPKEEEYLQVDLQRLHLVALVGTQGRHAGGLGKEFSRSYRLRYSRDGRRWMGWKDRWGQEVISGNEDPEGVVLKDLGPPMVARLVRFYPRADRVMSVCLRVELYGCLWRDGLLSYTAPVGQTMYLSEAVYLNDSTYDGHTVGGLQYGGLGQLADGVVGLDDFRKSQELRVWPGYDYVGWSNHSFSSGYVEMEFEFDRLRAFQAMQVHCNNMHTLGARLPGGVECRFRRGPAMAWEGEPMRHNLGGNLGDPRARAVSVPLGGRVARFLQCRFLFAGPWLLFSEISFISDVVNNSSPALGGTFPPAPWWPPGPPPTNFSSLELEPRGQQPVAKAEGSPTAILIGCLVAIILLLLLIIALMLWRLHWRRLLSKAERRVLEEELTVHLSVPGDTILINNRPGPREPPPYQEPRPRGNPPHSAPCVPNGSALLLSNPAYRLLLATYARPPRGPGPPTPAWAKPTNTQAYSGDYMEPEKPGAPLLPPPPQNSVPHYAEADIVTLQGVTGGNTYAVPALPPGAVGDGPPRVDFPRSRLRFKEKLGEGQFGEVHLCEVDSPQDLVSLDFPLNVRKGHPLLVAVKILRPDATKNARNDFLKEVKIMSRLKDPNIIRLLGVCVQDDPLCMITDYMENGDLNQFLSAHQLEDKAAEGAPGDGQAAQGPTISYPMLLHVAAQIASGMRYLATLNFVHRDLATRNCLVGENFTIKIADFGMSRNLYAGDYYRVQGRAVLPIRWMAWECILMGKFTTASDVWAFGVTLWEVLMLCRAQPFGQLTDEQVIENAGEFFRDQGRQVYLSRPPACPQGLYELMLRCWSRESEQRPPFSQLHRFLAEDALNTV
Sequence of Cyclin-dependent kinase-like 3 (Homo sapiens) (Q8IVW4 whole entry, looked up, the tested form may be a part): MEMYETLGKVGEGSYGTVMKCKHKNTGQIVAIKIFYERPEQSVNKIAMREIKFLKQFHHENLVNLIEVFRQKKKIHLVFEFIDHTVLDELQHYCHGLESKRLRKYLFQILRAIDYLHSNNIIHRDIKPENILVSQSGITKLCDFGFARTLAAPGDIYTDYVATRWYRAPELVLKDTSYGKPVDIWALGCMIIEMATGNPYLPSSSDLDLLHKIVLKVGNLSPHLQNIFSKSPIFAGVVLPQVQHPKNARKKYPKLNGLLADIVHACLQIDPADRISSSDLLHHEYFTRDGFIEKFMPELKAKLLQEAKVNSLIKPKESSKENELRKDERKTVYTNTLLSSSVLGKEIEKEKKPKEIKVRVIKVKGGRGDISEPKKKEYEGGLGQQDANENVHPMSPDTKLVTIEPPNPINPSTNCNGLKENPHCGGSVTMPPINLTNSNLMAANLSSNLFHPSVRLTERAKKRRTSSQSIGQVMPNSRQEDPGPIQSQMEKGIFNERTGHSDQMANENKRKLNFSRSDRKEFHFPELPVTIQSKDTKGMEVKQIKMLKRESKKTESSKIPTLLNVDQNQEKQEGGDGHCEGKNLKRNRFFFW
Sequence of Serine/threonine-protein kinase PAK 1 (Homo sapiens) (Q13153 whole entry): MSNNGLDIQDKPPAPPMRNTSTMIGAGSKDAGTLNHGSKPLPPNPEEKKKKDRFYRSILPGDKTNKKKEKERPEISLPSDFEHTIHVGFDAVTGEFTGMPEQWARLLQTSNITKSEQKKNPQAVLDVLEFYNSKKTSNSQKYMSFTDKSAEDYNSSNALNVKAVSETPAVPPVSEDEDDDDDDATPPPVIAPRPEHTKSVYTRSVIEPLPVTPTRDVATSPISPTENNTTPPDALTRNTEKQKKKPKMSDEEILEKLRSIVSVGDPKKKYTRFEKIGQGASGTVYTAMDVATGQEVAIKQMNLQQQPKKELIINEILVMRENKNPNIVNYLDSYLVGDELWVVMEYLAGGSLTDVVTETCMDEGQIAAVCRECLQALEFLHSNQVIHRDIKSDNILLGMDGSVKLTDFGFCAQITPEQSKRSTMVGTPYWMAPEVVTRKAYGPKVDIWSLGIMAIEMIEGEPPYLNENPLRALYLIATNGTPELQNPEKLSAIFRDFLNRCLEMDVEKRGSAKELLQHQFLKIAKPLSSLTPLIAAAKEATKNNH

CN(C)C/C=C/C(=O)Nc1ccc(C(=O)N2CCCC(Nc3ncc(Cl)c(-c4c[nH]c5ccccc45)n3)C2)cc1 (stereo not drawn)
% of control [1]: 100%
% of control [2]: 93%
% of control [3]: 71%

CC[C@@H]1[C@H](F)C(=O)N[C@@H]1COc1nccc2cc(C(N)=O)c(OC)cc12 [ZIMLOVISERTIB]
% of inhibition [4]: 1.51%

Cn1cc(-n2cnc3c(NCc4nc5cc(Cl)c(Cl)cc5[nH]4)nc(N4CCOCC4)nc32)cn1
% of control [5]: 9.23%

Cc1cc(F)c(C(=O)Nc2cccc(-c3nncn3C(C)C)n2)cc1-n1cnc(C2CC2)c1
% of control [6]: 100%

COc1cc(N(C)c2ccnc3ccc(C(F)(F)F)cc23)cc(OC)c1OC
% binding [7]: 60%

C=CC(=O)Nc1cccc(C(=O)Nc2ccc(Nc3cc(-c4[nH]c(SC)nc4C)ccn3)cc2)c1
% of control ([8]; at 1 µM): 84%
% of control ([8]; at 5 µM): 94%

CN(C)CCOc1ccc(-c2nc(-c3ccncc3)c(-c3ccc4c(c3)CC/C4=N\O)[nH]2)cc1
% of control [9]: 0.6%
% of control [10]: 100%

N#Cc1cccc(-c2c[nH]c3ncnc(N4CCOCC4)c23)c1
% of control [11]: 93%

C=CC(=O)Nc1ccc(C(=O)Nc2[nH]nc3c2CN(C(=O)N[C@H](CN(C)C)c2ccccc2)C3(C)C)cc1
% of engagement [12]: 2%
